Columns and labels:
human TLR-2 = target: T1, human TLR-2 (Homo sapiens, UniProt O60603); test: TLR-transfection NF-κB reporter (pELAM) assay, HEK-293 cells transfected with TLR-2 and CD14; format: cell-based
T1 construct: host or cells: HEK-293
Experimental: (§1) For transfection assays, human embryonic kidney (HEK)-293 cells were plated in 96 well plates at 10^4 cells per well and transfected after 24 h using Genejuice (Novagen) according to manufacturer's instructions. The following amounts of constructs were added to each well: 30 ng of human TLR-2, TLR-5 or TLR-4 (co-expressing MD-2), 30 ng of pCD14 and 10 ng of NF-κB-sensitive luciferase-reporter construct (pELAM). Cells were grown for 3 days post transfection prior to 18 h challenge. Promoter expression was calculated as fold induction relative to cells cultured in medium alone +/−SD. Endogenous expression of TLRs in HEK-293 has been ruled out by RT-PCR by the inventor.
(§2) Log-transformed PAMP concentrations were then plotted against fold-induction of NF-κB reporter to generate a standard curve. […] For example, results presented as 200 ng/g BLP-equivalent means that each gramme of food contains TLR-2-stimulants with a capacity to stimulate TLR-2-signalling equal to that of 200 ng Pam3CSK4. Food extracts were measured at 1:10 dilution in DMEM/10% FCS in duplicate. If signals exceeded the range of the standard curve, further dilutions were prepared and reassayed.
Samples were then maintained at 100 ° C. for 1 -120 min, before cooling, diluting 1:10 in DMEM/10% FCS and applying to HEK-293 cells transfected with TLR-2 or TLR-4/MD2 for measurement of capacity to induce TLR-signalling as described above. […] Samples were then neutralised by addition of NaOH solution and applied to TLR-transfected HEK-293 cells as described above.
As a negative control, parallel samples were supplemented with an equal molarity of NaCl to account for increased salinity of samples due to acid/base neutralisation. […] Control samples were also heat-treated for 10 minutes.
TLR-stimulants were quantified in both whole heat-treated saliva (100° C. for 10 minutes), intended to reflect total bacteria-associated TLR-stimulants, and in saliva diluted 1:10 in PBS and filter-sterilised (0.22 μm, Acrodisc), intended to reflect soluble TLR-stimulants in human saliva. A recently developed bioassay based upon the measurement of NF-κB-dependent reporter activation in TLR-deficient HEK-293 cells transfected with human TLR2, TLR4/MD2 or TLR5, and callibrated with TLR2-, TLR4- or TLR5-stimulating standards (Erridge et al., 2010, Public Library of Science One 5, e9125), was used to quantify TLR-stimulants in saliva samples. Briefly, cells were plated in 96-well plates at 2×10^4 cells per well and transfected after 24 h using Genejuice (Novagen). Amounts of construct per well were 30 ng of human TLR2, TLR4 (co-expressing MD-2) or TLR5 (Invivogen), 30 ng of CD14 and 10 ng of firefly luciferase-reporter construct driven by the NF-KB dependent E-selectin promoter (pELAM). 3 days after transfection, cells were challenged in triplicate with heat-treated or sterile-filtered saliva samples diluted 1:100 in DMEM/1%FCS. […] After 18 h, NF-κB-dependent reporter expression was measured using Promega Dual-Glo reagent. Fold induction of reporter was calculated relative to cells cultured in medium alone and a standard curve was prepared by plotting fold NF-κB induction vs concentration for each standard PAMP. […] For example, results presented as 200 ng/ml lipopeptide-equivalents indicate that 1 ml of saliva contains TLR2-stimulants with a capacity to stimulate TLR2-signalling equal to that of 200 ng Pam3CSK4. The coefficient of variance of the assay averaged ˜20%. […]

[1] = tested on: HEK-293 cells transfected with CD14 alone; test: NF-κB reporter in HEK-293 cells transfected with CD14 and reporter alone (no corresponding TLR); format: cell-based, human; settings: data not shown
human monocytes = test: Challenge of human monocytes with food extracts, TNF-α (L929 bioassay) / IL-6 (ELISA) secretion; format: cell-based; settings: 25 μg/ml OxPAPC, filter-sterilised food extracts, 4 h
Experimental: Venous blood was collected by venepuncture from consenting healthy human subjects according to the guidelines laid down in the Declaration of Helsinki and all procedures involving human subjects were approved by the University of Leicester College of Medicine Research Ethics Committee. Written informed consent was obtained from all subjects. Peripheral blood mononuclear cells (PBMC) were prepared by density gradient centrifugation at 800 g for 25 min using Histopaque-1077 (Sigma). Recovered cells were washed twice in PBS solution, resuspended in RPMI/10% fetal calf serum (FCS) (Sigma) and plated in 96-well plates at 4×10^5 cells per well. Monocytes were prepared from PBMC by plastic adherence (1 h at 37° C.), followed by gentle washing to remove non-adherent cells. Remaining monocytes were then challenged by adding a 1:20 dilution of each sterile-filtered food extract in tissue culture medium. After incubation at 37° C. for 4 h, supernatants were removed for assay of TNF-α content by L929-cell bioassay as described in Delahooke et al. (1995, Infect. Immun. 63, 840-846), or IL-6 levels were measured by ELISA (R&D) after 18 h.

[2] = tested on: HEK-293 cells transfected with CD14 alone; settings: 10 μg/ml, positive control; cited from earlier work
human TLR-5 = target: T2, human TLR-5 (Homo sapiens, UniProt O60602); test: TLR-transfection NF-κB reporter (pELAM) assay, HEK-293 cells transfected with TLR-5 and CD14; format: cell-based
T2 construct: host or cells: HEK-293
Experimental: as §1, §2
TLR-stimulants were quantified in both whole heat-treated saliva (100° C. for 10 minutes), intended to reflect total bacteria-associated TLR-stimulants, and in saliva diluted 1:10 in PBS and filter-sterilised (0.22 μm, Acrodisc), intended to reflect soluble TLR-stimulants in human saliva. A recently developed bioassay based upon the measurement of NF-κB-dependent reporter activation in TLR-deficient HEK-293 cells transfected with human TLR2, TLR4/MD2 or TLR5, and callibrated with TLR2-, TLR4- or TLR5-stimulating standards (Erridge et al., 2010, Public Library of Science One 5, e9125), was used to quantify TLR-stimulants in saliva samples. […] After 18 h, NF-κB-dependent reporter expression was measured using Promega Dual-Glo reagent. Fold induction of reporter was calculated relative to cells cultured in medium alone and a standard curve was prepared by plotting fold NF-κB induction vs concentration for each standard PAMP. […]

[3] = pH 1.0 with HCl 2 h or 3 h, then neutralised

T1 sequence (O60603 21-784): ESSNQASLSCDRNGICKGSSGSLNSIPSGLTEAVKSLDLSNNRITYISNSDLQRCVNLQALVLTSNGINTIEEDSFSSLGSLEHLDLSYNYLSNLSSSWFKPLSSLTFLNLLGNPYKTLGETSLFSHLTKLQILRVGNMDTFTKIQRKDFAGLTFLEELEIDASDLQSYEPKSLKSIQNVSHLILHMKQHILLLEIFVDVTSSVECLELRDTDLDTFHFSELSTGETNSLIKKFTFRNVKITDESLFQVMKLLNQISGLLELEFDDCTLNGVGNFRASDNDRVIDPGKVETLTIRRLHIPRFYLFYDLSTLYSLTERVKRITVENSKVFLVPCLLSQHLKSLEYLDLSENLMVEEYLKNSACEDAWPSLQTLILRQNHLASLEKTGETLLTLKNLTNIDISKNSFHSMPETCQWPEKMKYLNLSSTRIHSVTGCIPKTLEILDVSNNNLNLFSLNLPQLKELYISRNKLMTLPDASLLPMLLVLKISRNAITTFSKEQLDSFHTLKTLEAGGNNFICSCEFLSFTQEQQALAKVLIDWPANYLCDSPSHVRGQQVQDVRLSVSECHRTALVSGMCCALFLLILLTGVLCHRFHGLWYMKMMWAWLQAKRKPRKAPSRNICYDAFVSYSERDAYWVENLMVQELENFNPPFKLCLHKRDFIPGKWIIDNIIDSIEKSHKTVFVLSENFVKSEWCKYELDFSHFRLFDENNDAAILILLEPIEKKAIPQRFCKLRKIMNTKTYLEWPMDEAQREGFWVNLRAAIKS
T2 sequence (O60602 21-858): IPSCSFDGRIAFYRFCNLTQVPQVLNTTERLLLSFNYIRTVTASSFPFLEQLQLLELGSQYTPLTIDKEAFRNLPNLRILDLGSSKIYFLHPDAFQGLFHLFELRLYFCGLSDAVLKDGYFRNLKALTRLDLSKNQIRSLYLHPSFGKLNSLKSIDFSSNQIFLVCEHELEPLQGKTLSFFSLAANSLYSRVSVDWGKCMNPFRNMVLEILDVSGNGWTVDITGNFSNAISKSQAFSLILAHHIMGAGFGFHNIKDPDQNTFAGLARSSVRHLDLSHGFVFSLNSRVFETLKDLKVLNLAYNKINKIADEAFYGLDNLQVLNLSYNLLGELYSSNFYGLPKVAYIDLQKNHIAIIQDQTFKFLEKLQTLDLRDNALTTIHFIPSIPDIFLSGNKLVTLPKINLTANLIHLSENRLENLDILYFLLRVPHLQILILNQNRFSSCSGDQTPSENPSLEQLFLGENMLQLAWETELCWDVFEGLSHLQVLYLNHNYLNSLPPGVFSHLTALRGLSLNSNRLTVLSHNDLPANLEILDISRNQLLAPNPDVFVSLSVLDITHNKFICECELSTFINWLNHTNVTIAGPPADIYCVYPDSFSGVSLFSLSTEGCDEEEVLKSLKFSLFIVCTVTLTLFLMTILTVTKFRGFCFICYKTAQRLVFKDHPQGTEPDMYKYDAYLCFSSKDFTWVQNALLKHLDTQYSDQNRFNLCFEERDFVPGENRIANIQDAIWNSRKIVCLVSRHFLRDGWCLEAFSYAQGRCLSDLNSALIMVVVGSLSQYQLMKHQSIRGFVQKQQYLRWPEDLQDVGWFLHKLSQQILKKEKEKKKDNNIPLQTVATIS

Pam3CSK4
Biological activity (TLR-2 signalling) after heating (human TLR-2; 100 ng/ml, 100° C. for up to 2 hours): not measurably reduced
Minimum concentration to which transfected cells were sensitive (human TLR-2; TLR-2 transfected HEK-293): 0.1 ng/mL
Capacity to stimulate TLR-2 after low pH treatment (human TLR-2; [3]): did not affect
Biological activity (TLR-2) after protease treatment (human TLR-2; proteinase-K 37° C. 1 h): unaffected
Activation of HEK-293 cells transfected with CD14 alone, or with non-corresponding TLRs [1]: unable to activate

oxidised palmitoyl-arachidonyl phosphocholine [OxPAPC]
TNF-α secretion in response to each stimulant-containing foodstuff in presence of OxPAPC (human monocytes): completely abrogated
Inhibition of TLR2-dependent signalling induced by patient saliva samples (human TLR-2; 25 μg/ml OxPAPC, filter-sterilised saliva 1:100, 18 h): significantly blocked

polyinosinic acid [PolyI:C]
NF-κB activation in HEK-293 cells [2]: stimulates NF-κB activation independently of TLR2, TLR4 or TLR5

B1: flagellin: S. typhimurium flagellin purchased from Invivogen, TLR5 standard (protein, UniProt P06179 2-495, looked up)
Flagellin: AQVINTNSLSLLTQNNLNKSQSALGTAIERLSSGLRINSAKDDAAGQAIANRFTANIKGLTQASRNANDGISIAQTTEGALNEINNNLQRVRELAVQSANSTNSQSDLDSIQAEITQRLNEIDRVSGQTQFNGVKVLAQDNTLTIQVGANDGETIDIDLKQINSQTLGLDTLNVQQKYKVSDTAATVTGYADTTIALDNSTFKASATGLGGTDQKIDGDLKFDDTTGKYYAKVTVTGGTGKDGYYEVSVDKTNGEVTLAGGATSPLTGGLPATATEDVKNVQVANADLTEAKAALTAAGVTGTASVVKMSYTDNNGKTIDGGLAVKVGDDYYSATQNKDGSISINTTKYTADDGTSKTALNKLGGADGKTEVVSIGGKTYAASKAEGHNFKAQPDLAEAAATTTENPLQKIDAALAQVDTLRSDLGAVQNRFNSAITNLGNTVNNLTSARSRIEDSDYATEVSNMSRAQILQQAGTSVLAQANQVPQNVLSLLR
Biological activity (TLR5 signalling) after heating (human TLR-5; 100 ng/ml, 100° C., by 1 h): almost completely abolished
Biological activity (TLR5) after low pH treatment (human TLR-5; [3]): increased
Bioactivity (TLR5) after protease treatment (human TLR-5; proteinase-K 37° C. 1 h): abolished
Activation of HEK-293 cells transfected with CD14 alone, or with non-corresponding TLRs [1]: unable to activate
